Reference: ChEMBL document CHEMBL3045043, “Synthesis, chemical characterization of novel 1,3-dimethyl acridones as cytotoxic agents, and their DNA-binding studies” (Med Chem Res, 2010)

How the values were obtained:
HL-60 = experiment: Cytotoxicity against Homo sapiens (human) HL60 cells after 48 hr by trypan blue assay; format: functional, cell-based; settings: HL-60, 48 h
MCF7 = experiment: Cytotoxicity against Homo sapiens (human) MCF7 cells after 48 hr by trypan blue assay; format: functional, cell-based; settings: MCF7, 48 h
DNA = experiment: Binding affinity to Bos taurus (calf) thymus DNA assessed as hypochromicity at 15 uM by spectrophotmetry analysis; format: nucleic-acid assay

SMILES	Activity (DNA)	IC50 (HL-60)	IC50 (MCF7)
Cc1cc(C)c2c(=O)c3ccccc3n(CCCCl)c2c1	–	16.4 µM	54.4 µM
Cc1cc(C)c2c(=O)c3ccccc3n(CCCN3CCCCC3)c2c1	–	14.1 µM	34.6 µM
Cc1cc(C)c2c(=O)c3ccccc3[nH]c2c1	–	20 µM	78.9 µM
Cc1cc(C)c2c(=O)c3ccccc3n(CCCCCl)c2c1	–	14.2 µM	34.4 µM
Cc1cc(C)c2c(=O)c3ccccc3n(CCCN3CCCC3)c2c1	–	14.6 µM	19.7 µM
CCN(CC)CCCn1c2ccccc2c(=O)c2c(C)cc(C)cc21	40%	1.65 µM	11.2 µM
CCN(CC)CCCCn1c2ccccc2c(=O)c2c(C)cc(C)cc21	52%	0.45 µM	7.98 µM
O=P1(N(CCCl)CCCl)NCCCO1 (stereo unspecified) [CYCLOPHOSPHAMIDE ANHYDROUS]	–	–	0.16 µM

Continued, in another order:

Activity (DNA)	SMILES	IC50 (HL-60)	IC50 (MCF7)
53%	Cc1cc(C)c2c(=O)c3ccccc3n(CCCCN3CCN(CCO)CC3)c2c1	11 µM	4 µM
35%	Cc1cc(C)c2c(=O)c3ccccc3n(CCCCN3CCOCC3)c2c1	0.51 µM	8.45 µM
50%	Cc1cc(C)c2c(=O)c3ccccc3n(CCCCN3CCCCC3)c2c1	1.41 µM	6.67 µM
29%	Cc1cc(C)c2c(=O)c3ccccc3n(CCCCN3CCCC3)c2c1	14.1 µM	4.56 µM
13%	Cc1cc(C)c2c(=O)c3ccccc3n(CCCN3CCOCC3)c2c1	13.7 µM	43.9 µM
52%	Cc1cc(C)c2c(=O)c3ccccc3n(CCCN3CCN(CCO)CC3)c2c1	10.9 µM	7.87 µM
51%	Cc1cc(C)c2c(=O)c3ccccc3n(CCCCN3CCN(C)CC3)c2c1	1.74 µM	8.96 µM
48%	Cc1cc(C)c2c(=O)c3ccccc3n(CCCN3CCN(C)CC3)c2c1	15.4 µM	28.5 µM
